Measured values published in PubChem BioAssay AID743111 (Vanderbilt Specialized Chemistry Center, 2013).
Active and inactive are the calls of the source.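 The calls were made as follows: active = response above 60% of the acetylcholine maximum at the M5 muscarinic receptor, read as positive allosteric modulation; inactive = the rest.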

Biological target: Muscarinic acetylcholine receptor M5 (Rattus norvegicus) (UniProt P08911)
Assay: potentiation of ACh response at rat M5 – cell-based, rat ortholog, CHO-K1, calcium flux, ACh EC20, selectivity assay for M5 PAM project, dose response (AID 743111)
Settings: CHO-K1 rat M5, Fluo-4 calcium flux

Sequence of Muscarinic acetylcholine receptor M5 (Rattus norvegicus) (P08911 whole entry, looked up): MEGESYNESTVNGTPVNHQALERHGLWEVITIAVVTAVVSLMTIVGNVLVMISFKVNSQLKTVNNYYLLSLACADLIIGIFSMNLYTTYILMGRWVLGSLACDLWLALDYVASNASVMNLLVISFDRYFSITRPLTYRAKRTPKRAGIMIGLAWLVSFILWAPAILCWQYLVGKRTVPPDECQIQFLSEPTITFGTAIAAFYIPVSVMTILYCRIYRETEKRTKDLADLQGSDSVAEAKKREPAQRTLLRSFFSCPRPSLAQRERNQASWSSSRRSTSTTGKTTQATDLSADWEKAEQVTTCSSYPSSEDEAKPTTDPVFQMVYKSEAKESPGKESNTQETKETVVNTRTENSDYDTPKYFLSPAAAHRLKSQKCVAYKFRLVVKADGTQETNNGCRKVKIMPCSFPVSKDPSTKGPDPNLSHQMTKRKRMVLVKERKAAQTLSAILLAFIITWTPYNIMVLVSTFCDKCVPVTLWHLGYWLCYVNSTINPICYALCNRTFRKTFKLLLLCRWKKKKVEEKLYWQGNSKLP

SMILES	EC50 [µM]
CCN(Cc1ccccc1Cl)C(=O)C1CCN(S(=O)(=O)c2ccc3[nH]ncc3c2)CC1	0.3
CCN(Cc1ccccc1)C(=O)C1CCN(S(=O)(=O)c2ccc3cn[nH]c3c2)CC1	1.95
CCN(Cc1ccccc1C(F)(F)F)C(=O)C1CCN(S(=O)(=O)c2ccc3cn[nH]c3c2)CC1	1.2
CCN(Cc1ccccc1C(F)(F)F)C(=O)C1(F)CCN(S(=O)(=O)c2ccc3[nH]ncc3c2)CC1	0.71
CCN(Cc1ccccc1)C(=O)C1CCN(S(=O)(=O)c2ccc3[nH]ncc3c2)CC1	1.45
CCN(C(=O)C1CCN(S(=O)(=O)c2ccc(OC)cc2)CC1)[C@H](C)c1ccccc1	1.57
CCN(C(=O)C1CCN(S(=O)(=O)c2ccc3cn[nH]c3c2)CC1)[C@H](C)c1ccccc1	0.86
CCCN(Cc1ccccc1C(F)(F)F)C(=O)C1CCN(S(=O)(=O)c2ccc3[nH]ncc3c2)CC1	0.32
CCN(C(=O)C1CCN(S(=O)(=O)c2ccc(-n3cccn3)cc2)CC1)[C@H](C)c1ccccc1	1.2
CCN(Cc1ccccc1C(F)(F)F)C(=O)C1CCN(S(=O)(=O)c2ccc3[nH]ncc3c2)CC1	0.54
CCN(C(=O)C1CCN(S(=O)(=O)c2ccc3[nH]ncc3c2)CC1)[C@H](C)c1ccccc1	0.64

Same assay, conditions: CHO-K1 rat M5, Fluo-4 calcium flux, at 30 µM (top of the series)

SMILES	% ACh max response
CCN(Cc1ccccc1)C(=O)C1CCN(S(=O)(=O)c2ccc3c(c2)OCCO3)CC1	inactive
CCN(Cc1ccccc1)C(=O)C1CCN(S(=O)(=O)c2ccc(OC)cc2)CC1	inactive
